Test results from patent US20110044913A1, “8-HYDROXY-5-[(1R)-1-HYDROXY-2-[[(1R)-2-(4-METHOXYPHENYL)-1-METHYLETHYL]AMINO]ETHYL]-2(1H)-QUINOLINONE HEMI-FUMARATE” (Chiesi Farmaceutici S.p.A., priority 2009, published 2011).
Where a name gives a salt, the structure may show the parent alone.

How the values were obtained:
Assay type in all cases: physicochemical
[1] = Solubility of the salt in different solvents
[2] = Hygroscopicity of the salt
[3] = Chemical and physical stability of the salt; conditions: different conditions of humidity and temperature
[4] = Particle size distribution after jet milling (micronization); conditions: micronized batch
Description: A batch of formoterol fumarate dihydrate is milled in a nitrogen fluid jet mill apparatus MC 50 (JET Pharma S.A).

[5] = Dispersion of the micronized salt in the carrier by Near Infrared microscopy imaging (Near Imaging); conditions: micronized form, after 180 minute of mixing
Protocol: As it can be appreciated from Table 6, upon milling, the salt of the present invention remains crystalline and its chemical purity is not altered. The batch is then added to a carrier made of coarser particles.
The homogeneous dispersion of the active ingredient in the powder, and the absence of aggregates of active particles is established using a Near Infrared spectrophotometer equipped with a microscopy imaging system (Near Imaging).

## COc1ccc(CC(C)NCC(O)c2ccc(O)c3[nH]c(=O)ccc23)cc1 [Carmoterol hemi-fumarate, 8-hydroxy-5-[(1R)-1-hydroxy-2-[[(1R)-2-(4-methoxyphenyl)-1-methylethyl]amino]ethyl]-2(1H)-quinolinone (carmoterol) hemi-fumarate salt]
[1]; HFA propellants
  Solubility in HFA propellants: practically insoluble
[1]; solvent: Vertrel XF (2,3-dihydodecafluoropentane, simulates HFA propellants), l.o.d. = limit of detection
  Solubility in Vertrel XF: <l.o.d.^(2)
[1]; solvent: acetone
  Solubility in Acetone: 0.008 %, w/v
[1]; solvent: ethanol
  Solubility in Ethanol: 0.27 %, w/v
[1]; solvent: water
  solubility: 13.6 mg/mL
[2]
  Hygroscopicity: non-hygroscopic
[3]
  Chemical and physical stability: chemically and physically stable
[4]
  Particle size d (v, 0.1): 0.79 μm
  Particle size d (v, 0.5): 3.73 μm
  Particle size d (v, 0.9): 7.58 μm
[5]
  Agglomerates after mixing with carrier: no agglomerates are observed
